According to patent publication US7795284B2, “4,7-dioxobenzothiazole-2-carboxamide derivatives, their preparation and their therapeutic uses” (Ipsen Pharma S.A.S., priority 2004, dated 2010):
Structures can show the parent of a compound that is named as a salt.

melting point	Structure (SMILES)
199 to 200 °C	COc1ccc(NC(=O)c2nc3c(s2)C(=O)C=C(NCCN(C)C)C3=O)cc1F [Example 35, 5-{[2-(dimethylamino)ethyl]amino}-N-(3-fluoro-4-methoxyphenyl)-4,7-dioxo-4,7-dihydro-1,3-benzothiazole-2-carboxamide]
208 to 209 °C	CN(C)CCNC1=CC(=O)c2sc(C(=O)Nc3ccc(F)cc3)nc2C1=O [Example 33, 5-{[2-(dimethylamino)ethyl]amino}-N-(4-fluorophenyl)-4,7-dioxo-4,7-dihydro-1,3-benzothiazole-2-carboxamide]
154 to 156 °C	CN(C)CCNC1=CC(=O)c2sc(C(=O)NCCCN3CCCC3=O)nc2C1=O [Example 5, 5-{[2-(dimethylamino)ethyl]amino}-4,7-dioxo-N-[3-(2-oxopyrrolidin-1-yl)propyl]-4,7-dihydro-1,3-benzothiazole-2-carboxamide]
260 to 261 °C	CCNC(=O)c1nc2c(s1)C(=O)C=C(NCCc1ccc(F)cc1)C2=O [Example 39, N-ethyl-5-{[2-(4-fluorophenyl)ethyl]amino}-4,7-dioxo-4,7-dihydro-1,3-benzothiazole-2-carboxamide]
163 to 164 °C	CCNC(=O)c1nc2c(s1)C(=O)C=C(N(C)CCN(C)C)C2=O [Example 38, 5-[[2-(dimethylamino)ethyl](methyl)amino]-N-ethyl-4,7-dioxo-4,7-dihydro-1,3-benzothiazole-2-carboxamide]
207 to 208 °C	COc1ccc(NC(=O)c2nc3c(s2)C(=O)C=C(NCCN(C)C)C3=O)cc1 (as salt: methanesulphonate) [Example 18, 5-{[2-(dimethylamino)ethyl]amino}-N-(4-methoxyphenyl)-4,7-dioxo-4,7-dihydro-1,3-benzothiazole-2-carboxamide]
211 to 212 °C	CN(C)CCNC1=CC(=O)c2sc(C(=O)N3CCN(C(=O)N4CCOCC4)CC3)nc2C1=O [Example 16, 5-{[2-(dimethylamino)ethyl]amino}-2-{[4-(morpholin-4-ylcarbonyl)piperazin-1-yl]carbonyl}-1,3-benzothiazole-4,7-dione]
174 to 175 °C	CCNC(=O)c1nc2c(s1)C(=O)C=C(NCCN(C)C)C2=O [Example 24, 5-{[2-(dimethylamino)ethyl]amino}-N-ethyl-4,7-dioxo-4,7-dihydro-1,3-benzothiazole-2-carboxamide]
55 to 57 °C	CN(C)CCNC1=CC(=O)c2sc(C(=O)NCCOCCOCCNC(=O)OC(C)(C)C)nc2C1=O [Example 2, tert-butyl {2-[2-(2-{[(5-{[2-(dimethylamino)ethyl]amino}-4,7-dioxo-4,7-dihydro-1,3-benzothiazol-2-yl)carbonyl]amino}ethoxy)ethoxy]ethyl}carbamate]
92 to 94 °C	COCCN(CCOC)C(=O)c1nc2c(s1)C(=O)C=C(NCCN(C)C)C2=O [Example 4, 5-{[2-(dimethylamino)ethyl]amino}-N,N-bis(2-methoxyethyl)-4,7-dioxo-4,7-dihydro-1,3-benzothiazole-2-carboxamide]
207 to 208 °C	CN(C)CCNC1=CC(=O)c2sc(C(=O)N3CCOCC3)nc2C1=O [Example 1, 5-{[2-(dimethylamino)ethyl]amino}-2-(morpholin-4-ylcarbonyl)-1,3-benzothiazole-4,7-dione]
192 to 193 °C	COc1ccc2c(c1)CCCN2C(=O)c1nc2c(s1)C(=O)C=C(NCCN(C)C)C2=O [Example 36, 5-{[2-(dimethylamino)ethyl]amino}-2-[(6-methoxy-3,4-dihydroquinolin-1(2H)-yl)carbonyl]-1,3-benzothiazole-4,7-dione]
193 to 194 °C	O=C1C(NCCN2CCCC2)=CC(=O)c2sc(C(=O)N3CCN(C(=O)N4CCOCC4)CC3)nc21 [Example 17, 2-{[4-(morpholin-4-ylcarbonyl)piperazin-1-yl]carbonyl}-5-[(2-pyrrolidin-1-ylethyl)amino]-1,3-benzothiazole-4,7-dione]
207 to 208 °C	CN(C)CCNC1=CC(=O)c2sc(C(=O)N3CCCC3)nc2C1=O [Example 22, 5-{[2-(dimethylamino)ethyl]amino}-2-(pyrrolidin-1-ylcarbonyl)-1,3-benzothiazole-4,7-dione]
209 to 210 °C	COc1ccc(C(=O)N2CCN(C(=O)c3nc4c(s3)C(=O)C=C(NCCN(C)C)C4=O)CC2)cc1 [Example 37, 5-{[2-(dimethylamino)ethyl]amino}-2-{[4-(4-methoxybenzoyl)piperazin-1-yl]carbonyl}-1,3-benzothiazole-4,7-dione]
163 to 164 °C	CC(C)CNC(=O)c1nc2c(s1)C(=O)C=C(NCCN(C)C)C2=O [Example 7, 5-{[2-(dimethylamino)ethyl]amino}-N-isobutyl-4,7-dioxo-4,7-dihydro-1,3-benzothiazole-2-carboxamide]
168 to 169 °C	CN(C)CCNC1=CC(=O)c2sc(C(=O)N3CCN(C(=O)C4CCCO4)CC3)nc2C1=O (centres unmarked) [Example 20, 5-{[2-(dimethylamino)ethyl]amino}-2-{[4-(tetrahydrofuran-2-ylcarbonyl)piperazin-1-yl]carbonyl}-1,3-benzothiazole-4,7-dione]
171 to 172 °C	CN(C)CCNC1=CC(=O)c2sc(C(=O)NCC3CCCCC3)nc2C1=O [Example 13, N-(cyclohexylmethyl)-5-{[2-(dimethylamino)ethyl]amino}-4,7-dioxo-4,7-dihydro-1,3-benzothiazole-2-carboxamide]
220 to 221 °C	CN(C)CCNC1=CC(=O)c2sc(C(=O)Nc3ccc4c(c3)OCO4)nc2C1=O [Example 26, N-1,3-benzodioxol-5-yl-5-{[2-(dimethylamino)ethyl]amino}-4,7-dioxo-4,7-dihydro-1,3-benzothiazole-2-carboxamide]
201 to 202 °C	CN(C)CCNC1=CC(=O)c2sc(C(=O)N3CCN(S(C)(=O)=O)CC3)nc2C1=O [Example 19, 5-{[2-(dimethylamino)ethyl]amino}-2-{[4-(methylsulphonyl)piperazin-1-yl]carbonyl}-1,3-benzothiazole-4,7-dione]
161 to 162 °C	CN(C)CCNC1=C(Br)C(=O)c2sc(C(=O)N3CCN(C(=O)C4CCCO4)CC3)nc2C1=O (centres unmarked) [Example 21, 6-bromo-5-{[2-(dimethylamino)ethyl]amino}-2-{[4-(tetrahydrofuran-2-ylcarbonyl)piperazin-1-yl]carbonyl}-1,3-benzothiazole-4,7-dione]
224 to 225 °C	CN(C)CCNC1=CC(=O)c2nc(C(=O)N3CCCC3)sc2C1=O [Example 34, 6-{[2-(dimethylamino)ethyl]amino}-2-(pyrrolidin-1-ylcarbonyl)-1,3-benzothiazole-4,7-dione]
188 to 189 °C	CN(C)CCNC1=CC(=O)c2sc(C(=O)NCc3ccccc3)nc2C1=O [Example 12, N-benzyl-5-{[2-(dimethylamino)ethyl]amino}-4,7-dioxo-4,7-dihydro-1,3-benzothiazole-2-carboxamide]
